Earlier results, collected in patent US20040019115A1, “Use of milnacipran for the treatment of tension-type headache” (priority 2002, published 2004).

Details: patients with chronic tension-type headache, prophylactic treatment

## CN(C)CCC=C1c2ccccc2CCc2ccccc21 [Amitriptyline]
  reduction of headache: 30%
